# Source: patent US6207404A, “Coumarin-based CYP3A fluorescent assay reagents” (Gentest Corporation, priority 1999, dated 2001)
# How the values were obtained:
# [1] = tested on: human CYP2B6; conditions: Code et al. 1997; Morse and Lu 1998; cited from earlier work
# [2] = tested on: other human P450s; conditions: Code et al. 1997; Morse and Lu 1998; cited from earlier work
# [3] = tested on: panel of cDNA-expressed human P450 enzymes; conditions: Ono et al. (1996); cited from earlier work
# [4] = tested on: CYP3A4; conditions: in words; Crespi et al. 1997; cited from earlier work
# [5] = target: T1, human CYP3A4 (Homo sapiens, UniProt P08684); test: Enzyme kinetics of substrate turnover with cDNA-expressed CYP3A4 (fluorometric); type: biochemical
# T1 sequence (P08684 whole entry): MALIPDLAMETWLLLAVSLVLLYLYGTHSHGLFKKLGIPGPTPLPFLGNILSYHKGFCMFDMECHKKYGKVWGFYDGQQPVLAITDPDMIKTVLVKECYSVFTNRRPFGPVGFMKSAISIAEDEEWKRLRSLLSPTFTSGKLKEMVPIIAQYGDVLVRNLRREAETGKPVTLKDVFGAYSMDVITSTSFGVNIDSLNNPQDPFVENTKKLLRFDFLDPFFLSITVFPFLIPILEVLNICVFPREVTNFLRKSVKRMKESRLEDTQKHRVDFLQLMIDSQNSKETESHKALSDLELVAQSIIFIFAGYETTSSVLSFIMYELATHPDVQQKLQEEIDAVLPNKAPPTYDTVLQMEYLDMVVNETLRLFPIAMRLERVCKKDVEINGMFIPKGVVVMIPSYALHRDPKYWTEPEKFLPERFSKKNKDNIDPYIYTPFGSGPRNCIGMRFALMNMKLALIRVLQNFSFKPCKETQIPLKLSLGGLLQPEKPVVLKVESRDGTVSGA
# Description: The evaluation of compounds of Formula I were initially performed by measuring the kinetics of turnover using cDNA-expressed CYP3A4. In most instances, Vmax and Km values are important for the optimization of the assay conditions and for setting the parameters for inhibition experiments. Fluorometric assays for the turnover of compounds of Formula I by CYP3A4 were performed based on a modification of the method by Crespi et al. Anal Biochem. 248, 188-190, (1997), (described below).
# Example Compound I. Assays were conducted in 96 well microtiter plates (Corning COSTAR, cat. no. 3915). The substrate, compound I, was prepared in acetonitrile. After cofactors addition, the plates were prewarmed to 37° C. Incubations were initiated by the addition of prewarmed buffer and enzyme. The enzymes were commercially available, baculovirus/insect cell expressed human CYP3A4 (SUPERSOMES®, GENTEST Corporation). The amount of enzyme added per well was 1 pmole. […] Fluorescence per well was measured using a BMG FLUOstar Model 403 plate scanner controlled with an IBM-compatible computer. The metabolite was measured using an excitation wavelength of 410 nm and emission wavelength of 538 nm. Data was exported and analyzed using an Excel spreadsheet. The activity was quantified by comparing to a standard curve of 7-hydroxy-4-trifluoromethyl coumarin.
# [6] = tested on: panel of cDNA-expressed human P450 enzymes; test: Selectivity of dealkylation in a panel of cDNA-expressed human P450 enzymes; type: biochemical
# Excerpt: The selectivity of various P450 isoforms for dealkylation of compound I was examined using a panel of commercially available human cDNA-expressed enzymes. A substrate that is selective for a single P450 isoform (substrate is catalytically turned over by a single P450 isoform) is a desirable trait in that its activity may be examined within a heterogeneous mixture of enzymes, for example, in human liver microsomes. […] Compound I is therefore a more useful substrate for probing CYP3A activity in a heterogeneous mixture than the previous substrate BzRes. These advantages permit the specific detection of low levels of a preselected cytochrome P450 enzyme (e.g., 3A4) contained in various types of samples, e.g., tissue samples, microsomes, and so forth.
# Example Compound I. Assays were conducted as described in (1) above except: incubation time was 20 min.; enzymes were commercially available, baculovirus/insect cell expressed human P450s (SUPERSOMES®, GENTEST Corporation); and the amount of enzyme added per well was 10 pmole with the exception of 2.5 pmole for CYP3A enzymes.
# [7] = Solubility noted in enzyme kinetics table; type: physicochemical; conditions: at >200 uM
# [8] = target: T1, human CYP3A4
# [9] = Quantum yield of the fluorescent product; type: physicochemical; conditions: relative to the product of BzRes
# [10] = target: T1, human CYP3A4; test: biochemical; conditions: 37° C., 20 minutes
structure (smiles),measurement,setting,value
CCOc1ccc2c(C(F)(F)F)cc(=O)oc2c1 [7-Ethoxy-4-trifluoromethylcoumarin],O-dealkylation by human CYP2B6,[1],O-dealkylated
same,O-dealkylation by other human P450s,[2],O-dealkylated
"O=c1ccc2nc3ccc(OCc4ccccc4)cc3oc-2c1 [Benzyloxyresorufin, 7-benzyloxyresorufin]",metabolism by other human cytochromes P450,[3],significantly metabolized by other human cytochromes P450
same,enzymatic turnover,[4],low enzymatic turnover
same,specificity,[4],poor specificity
"O=c1cc(C(F)(F)F)c2ccc(OCc3ccccc3)cc2o1 [Compound I, 7-Benzyloxy-4-trifluoromethylcoumarin]",Vmax (at 40 uM),"[5]; cDNA-expressed CYP3A4, at 40 uM substrate",1.5 min⁻¹
same,Km at 0.75 h,"[5]; human, cDNA-expressed CYP3A4, 1 pmole/well, 37° C., 45 minutes",> 200 µM
same,selectivity of dealkylation in panel of human P450 enzymes (FIG. 1),"[6]; 20 min, 10 pmole/well (2.5 pmole for CYP3A enzymes)",selective for CYP3A4
same,rank of CYP1A1 in dealkylation of the substrate,[6]; CYP1A1,second best enzyme
same,solubility (remark to Km >200 uM),[7],exceeds solubility
same,IC50 values with compound I as the substrate compared with BzRes,[8],tend to yield lower IC50 values
"O=c1cc(C(F)(F)F)c2ccc(O)cc2o1 [Compound II, 7-hydroxy-4-trifluoromethylcoumarin]",quantum yield of product relative to the product of benzyloxyresorufin,[9],greater quantum yield
CC[C@H]1OC(=O)[C@H](C)[C@@H](O[C@H]2C[C@@](C)(OC)[C@@H](O)[C@H](C)O2)[C@H](C)[C@@H](O[C@@H]2O[C@H](C)C[C@H](N(C)C)[C@H]2O)[C@](C)(O)C[C@@H](C)C(=O)[C@H](C)[C@@H](O)[C@]1(C)O [Erythromycin],IC50,"[10]; CYP3A4 IC50, substrate BzRes, substrate BzRes",1700 nM
same,IC50,"[10]; CYP3A4 IC50, substrate I, substrate compound I (100 uM)",4070 nM
